# Read-outs that look alike come from different tables or passages of the source.
# Legend:
# [1] = system: pancreatic cancer cell lines Mia-PaCa2; assay: MTT assay, IC50 against pancreatic cancer cells (cytotoxicity study II); format: cell-based; details: Homo sapiens
# Method: The culture medium in each well of the cell culture plates was removed, and MTT reagent was added (to reach a final concentration of 0.5 mg/mL in each well). The plates were then placed in a 37°C, 5% CO2 incubator for 2 to 4 hours to form purple needle-like formazan crystals. Subsequently, the solution was aspirated, and 500 µL of dimethyl sulfoxide (DMSO) was added to each well. After shaking with a shaker for 5 to 10 minutes to completely dissolve the purple crystals, the absorbance at a wavelength of 570 or 595 nm was measured using an ELISA reader. The survival rate of the cells was calculated based on the absorbance, with the blank group as the baseline (the survival rate of the blank group was set to 100%). The data of the experimental group serum collected 2 hours after oral administration of the soft capsules are shown in FIG. 7; the data of the experimental group serum collected at 1, 4, 8, or 24 hours are shown in FIG. 8.
# Cell cultures in this example were all conducted in an environment of 95% relative humidity, 5% CO2, and 37°C.
# Pancreatic cancer cell lines Mia-PaCa2 were grouped and respectively cultured in 96-well cell culture plates for 24 hours using the following culture media: • 1. "Z-BP" Group: Mia-PaCa2 cell culture medium supplemented with Z-BP. • 2. […]
# [2] = Appearance (phase separation) of compositions after preparation; solubility of BP in sesame oil; format: physicochemical; details: concluded from absence of phase separation in Compositions 1 to 4
# Method: In a glass bottle, components were mixed with the dosage ratios shown in Table 1 to provide a mixture, and the mixture was rapidly stirred with a magnetic stirrer for 20 minutes to form a homogeneous liquid, thereby respectively preparing Compositions 1 to 4. After removing the magnetic stirrer, the glass bottle was tightly sealed and its appearance was observed and photographed, the results are shown in FIG. 1. Table 1: Volume Percentages of Composition in Compositions 1 to 4.
smiles,measurement,setting,value
"CCC/C=C1\OC(=O)C2=C1CCC=C2 [LG, Ligustilide]",IC50,"[1]; MIA PaCa-2, Mia-PaCa2 cells, 24 hours, MTT, oil groups: active mixed with oil in equal proportions, read-out: IC50",44.1 µg/mL
"CCCC=C1OC(=O)c2ccccc21 [BP, n-butylidenephthalide]",solubility in sesame oil,[2],good solubility
"CCC/C=C1\OC(=O)c2ccccc21 [Z-BP, (Z)-n-butylidenephthalide]",IC50,"[1]; MIA PaCa-2, 24 h",63.8 µg/mL

# Reference: patent publication EP4799646A1, “COMPOSITION AND METHOD FOR INCREASING BIOAVAILABILITY OF ACTIVE INGREDIENT” (Everfront Biotech Inc., priority 2023, dated 2025)
